Read-outs that look alike come from different tables or passages of the source.
Assays:
[1] = particles with dimensions of less than 100 μm
Text: The level of the fine particles is defined as the percentage by weight of the particles with dimensions of less than 100 μm.
Particles which pass through a sieve having a mesh size of 100 μm are regarded according to the invention as fine particles.

[2] = stirred, final concentration 4.8% by weight
Protocol: These measurements correspond to a test which consists in measuring the time necessary to dissolve said amount in water maintained at ambient temperature (20° C.) and kept stirred, for example using a propeller stirrer with 4 inclined blades.

[3] = final concentration 2% by weight
Protocol: A similar test is carried out in order to determine the rate of dissolution of the flakes in acrylic acid.
The test consists in defining the time necessary to dissolve the amount of flakes necessary in order to obtain a final concentration of hydroquinone in the acrylic acid of 2% by weight.

[4] = undried product
Protocol: The densities are measured on an undried product according to the test described in the European Phatmacopeia standard [Volume 1, p. 256 (2004), 5th edition], with the only difference that the 250 ml of test specimen is replaced by a 1 liter test specimen.

[5] = sieve mesh size 2.5 mm
Text: In order to define the particle size of the product of the invention, the percentage by weight of the particles with dimensions of less than 2.5 mm, that is to say particles which pass through a sieve having a mesh size of 2.5 mm, is also defined.

Row | % by weight of particles passing through a sieve with a mesh size of 100 μm (level of fine particles) [1] [% by weight] | Dissolution time in water at 20° C. (production of a 4.8% by weight solution) [2] [min] | Dissolution time in acrylic acid at 20° C. (production of a 2.0% by weight solution) [3] [min] | Loose bulk density [4] [g/mL] | Tapped bulk density [4] [g/mL] | % by weight of particles passing through a sieve with a mesh size of 100 μm (level of fine particles) ([1]; listed as hydroquinone in the powder form) [% by weight] | percentage by weight of the particles with dimensions of less than 2.5 mm [5] [% by weight] | Compound
1 | 0.8 | 21 | 45 | 0.52 | 0.70 |  |  | Oc1ccc(O)cc1 [Example 1, hydroquinone]
2 | 0.7 | 15 | 30 | 0.47 | 0.65 |  |  | Oc1ccc(O)cc1 [Example 2, hydroquinone]
3 | 0.9 | 18 | 35 | 0.48 | 0.67 |  |  | Oc1ccc(O)cc1 [Example 3, hydroquinone]
4 | 0.8 | 14 | 30 | 0.46 | 0.61 |  |  | Oc1ccc(O)cc1 [Example 4, hydroquinone]
5 | 0.9 | 14 | 30 | 0.53 | 0.66 |  |  | Oc1ccc(O)cc1 [Example 5, hydroquinone]
6 |  | 9 | 20 |  |  | ~20 | 100 | Oc1ccc(O)cc1 [hydroquinone powder, hydroquinone]

Reference: patent US8557380B2, “Form of hydroquinone and production thereof” (Rhodia Operations, priority 2006, dated 2013)
